Laboratory results from the supplement of paper PMC10307832.

Legend:
Test in all cases: relative viability (nuclei count vs DMSO), 5 days (fraction); higher = more cells survive
[1] = compound: CC(=O)Nc1cccc(-n2c(=O)n(C3CC3)c(=O)c3c(Nc4ccc(I)cc4F)n(C)c(=O)c(C)c32)c1 [Trametinib] + CS(=O)(=O)N1CCN(Cc2cc3nc(-c4cccc5[nH]ncc45)nc(N4CCOCC4)c3s2)CC1 [Pictilisib] (partner 1 µM)
Summary of the method: (§1)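 Lung cancer cell lines were seeded in 1536-well plates and dosed by pin tool the next day, with either a single drug or a fixed anchor-drug dose combined with five library-drug doses (not always all listed) spaced in √10 steps. Five days later, one step fixed the cells and stained their nuclei (final 0.05% Triton X-100, 1% formaldehyde, 1 ug/ml Hoechst), and nuclei were counted on 4× images. Relative viability is the nuclei count in treated wells divided by the count in vehicle wells, and each value is the median of duplicate plates.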

[2] = compound: CN1C=C(C2=CC=CC=C21)/C=C\3/C4=C(C=CC=N4)NC3=O + CC(=O)Nc1cccc(-n2c(=O)n(C3CC3)c(=O)c3c(Nc4ccc(I)cc4F)n(C)c(=O)c(C)c32)c1 [Trametinib] (partner 0.02 µM)
Summary of the method: as §1

[3] = compound: CN1C=C(C2=CC=CC=C21)/C=C\3/C4=C(C=CC=N4)NC3=O + COc1cc2c(Oc3ccc(NC(=O)C4(C(=O)Nc5ccc(F)cc5)CC4)cc3F)ccnc2cc1OCCCN1CCOCC1 [Foretinib] (partner 0.25 µM)
Summary of the method: as §1

[4] = compound: CN1C=C(C2=CC=CC=C21)/C=C\3/C4=C(C=CC=N4)NC3=O + Cc1nc(NC(=O)N2CCC[C@H]2C(N)=O)sc1-c1ccnc(C(C)(C)C(F)(F)F)c1 [Alpelisib] (partner 2 µM)
Summary of the method: as §1

Cell Line | relative viability ([1]; first compound 0.0025 µM) | relative viability ([1]; first compound 0.007906 µM) | relative viability ([1]; first compound 0.025 µM) | relative viability ([1]; first compound 0.07906 µM) | relative viability ([1]; first compound 0.25 µM) | relative viability ([2]; first compound 0.02 µM) | relative viability ([2]; first compound 0.06325 µM) | relative viability ([2]; first compound 0.2 µM) | relative viability ([2]; first compound 0.6325 µM) | relative viability ([2]; first compound 2 µM) | relative viability ([3]; first compound 0.02 µM) | relative viability ([3]; first compound 0.06325 µM) | relative viability ([3]; first compound 0.2 µM) | relative viability ([3]; first compound 0.6325 µM) | relative viability ([3]; first compound 2 µM) | relative viability ([4]; first compound 0.02 µM) | relative viability ([4]; first compound 0.06325 µM) | relative viability ([4]; first compound 0.2 µM) | relative viability ([4]; first compound 0.6325 µM) | relative viability ([4]; first compound 2 µM)
PC-14 | 0.667 | 0.546 | 0.24 | 0.141 | 0.107 | 0.713 | 0.69 | 0.692 | 0.747 | 0.78 | 0.993 | 0.975 | 1.04 | 0.959 | 1.01 | 0.99 | 1.03 | 1.19 | 0.906 | 1.04
RERF-LC-KJ | 0.417 | 0.449 | 0.503 | 0.494 | 0.458 | 0.887 | 0.835 | 0.771 | 0.804 | 0.822 | 0.924 | 0.938 | 0.867 | 0.859 | 0.779 | 0.904 | 0.848 | 0.748 | 0.811 | 0.736
SK-LU-1 | 0.535 | 0.399 | 0.251 | 0.278 | 0.256 | 0.414 | 0.475 | 0.475 | 0.416 | 0.533 | 0.596 | 0.705 | 0.869 | 0.713 | 0.992 | 0.879 | 0.671 | 0.956 | 0.94 | 1.17
SK-MES-1 | 0.282 | 0.223 | 0.214 | 0.171 | 0.187 | 0.509 | 0.603 | 0.538 | 0.596 | 0.54 | 0.795 | 0.668 | 0.96 | 0.875 | 0.865 | 0.763 | 0.853 | 0.84 | 0.963 | 1.02
SW 1573 | 0.357 | 0.34 | 0.339 | 0.308 | 0.214 | 0.531 | 0.576 | 0.571 | 0.687 | 0.712 | 0.995 | 0.925 | 0.894 | 0.975 | 0.822 | 0.742 | 0.644 | 0.782 | 0.803 | 0.814
